Biological target: T1, aldose reductase (Rattus norvegicus, UniProt P07943)
T1 construct: their crystalline lenses were immediately removed and stored at -80° C; The lenses were homogenized; from tissue; host or cells: crystalline lens of six-week-old male SD rats (30,000 rpm supernatant, dialysed)
Assay: Test for Examining Aldose Reductase Inhibitory Effect
Type: biochemical, male SD rats (crystalline lenses)
Conditions: rat lens aldose reductase; DL-glyceraldehyde 10 mM, NADPH 0.15 mM, pH 5.2, 30° C., 5 minutes; least-square regression of log dose-response curve
Method: Six-weeks-old male SD rats were anesthetized with ether and killed. Then their crystalline lenses were immediately removed and stored at -80° C. […] The resulting supernatant was dialyzed overnight against 0.05M sodium chloride solution to obtain an aldose reductase solution. All operations were conducted at 4° C. and the enzyme solution was stored at -80° C.
More specifically, 0.1 ml of DL-glyceraldehyde (final concentration: 10 mM) was added to 0.9 ml of 100 mM sodium potassium phosphate buffer (pH 5.2) which contained lithium sulfate (final concentration: 400 mM), reduced nicotinamide adenine dinucleotide phosphate (final concentration: 0.15 mM), the enzyme solution, and the compound to be evaluated (final concentration: 10^-6 M, 10^-7 M or 10^-8 M), and then the reaction was conducted at 30° C. for 5 minutes. During the reaction, the change in the absorbance at 340 nm with time was monitored.
The maximum reducing rate of the absorbance […] during the reaction was determined. By subtracting, from this value, the maximum reducing rate (U0) at 340 nm of the reaction solution before the addition of the substrate (DL-glyceraldehyde), the reaction rate (V=U-U0) was calculated as a true reaction rate in the presence of the compound to be tested.
The same procedure was repeated except for the absence of the compound to be tested. A true reaction rate (V0) in case the enzyme was not inhibited was calculated (V0 =U'-U0 '). The aldose reductase inhibitory activity of the test compounds was determined according to the following formula:
Rate of Inhibition (%)=(V0 -V)/V0 ×100
The concentration of inhibitor giving 50% inhibitation of enyzme activity […] was estimated from the least-square regression line of the log dose-response curve.

Compound	IC50 [nM]
O=C(O)Cn1nnnc1-c1ccc2ccccc2c1 [Example 3 - 1]	50
O=C(O)Cn1nnnc1-c1cccc2ccccc12 [Example 3 - 2, [5-(1-naphthyl)tetrazol-1-yl]acetic acid]	25
COc1ccc2cc(-c3nnnn3CC(=O)O)ccc2c1 [Example 3 - 3]	19
COc1ccc2c(-c3nnnn3CC(=O)O)cccc2c1C(F)(F)F [Example 3 - 4, [5-[1-(6-methoxy-5-trifluoromethyl)naphthyl]tetrazol-1-yl]acetic acid]	130

Reference: patent US5252592A, “Tetrazoleacetic acid derivatives having aldose reductase inhibitory activity” (Wakamoto Pharmaceutical Co., Ltd., priority 1991, dated 1993)
